# According to patent publication US20230037448A1, “FLUORINATED QUINOLINE AND QUINOXALINE DERIVATIVES AS DIHYDROOROTATE DEHYDROGENASE (DHODH) INHIBITORS FOR THE TREATMENT OF CANCER, AUTOIMMUNE AND INFLAMMATORY DISEASES” (Janssen Biotech, Inc., priority 2019, published 2023):
# How the values were obtained:
# human DHODH = target: T1, human DHODH (Homo sapiens, UniProt Q02127); assay: DHODH Enzymatic Assay; type: biochemical; conditions: purified human DHODH; DCIP absorbance, end-point mode
# T1 construct: purchased Proteros PR-0044
# T1 sequence (Q02127 whole entry): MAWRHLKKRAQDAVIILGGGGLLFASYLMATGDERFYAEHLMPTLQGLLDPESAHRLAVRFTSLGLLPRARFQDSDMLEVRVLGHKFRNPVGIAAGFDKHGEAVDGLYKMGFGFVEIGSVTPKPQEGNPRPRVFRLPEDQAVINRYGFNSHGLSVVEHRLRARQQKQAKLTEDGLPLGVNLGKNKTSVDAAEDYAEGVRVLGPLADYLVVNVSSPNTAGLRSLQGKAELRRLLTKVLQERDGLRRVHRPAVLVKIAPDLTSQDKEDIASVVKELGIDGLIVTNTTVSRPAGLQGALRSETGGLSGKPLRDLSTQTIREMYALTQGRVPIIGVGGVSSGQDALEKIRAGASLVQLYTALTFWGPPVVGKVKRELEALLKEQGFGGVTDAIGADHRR
# Protocol: To detect DHODH enzyme activities, dichloroindophenol (DCIP) is added as the final electron acceptor in the assay. DCIP can accept electrons from the reduced coenzyme Q generated in the assay, or from dihydroorotate (DHO) via FMN by binding presumably to the ubiquinone pocket. DCIP solutions are blue, with an intense absorbance around 600 nm, but becomes colorless upon reduction (J. Biol. Chem. (1986) 261, 11386). The assay buffer contained […], pH 7.5, 150 mM NaCl, 0.5 mM EDTA, and 0.1% Triton X-100 in MilliQ water. Substrate consisting of 20 mM DHO, 5 mM CoQ6, and 1 mM DCIP in assay buffer, initiates the reaction. The assay is run in end-point mode by quenching the reaction with the potent DHODH inhibitor brequinar. Absorbance measurements were obtained using the BMG Phera Star plate-reading spectrophotomer. Purified human DHODH was purchased from Proteros (cat. No. PR-0044). Chemicals were purchased from Sigma-Aldrich, Teknova, and Avanti Polar Lipids. Liquid handling was performed using Labcyte Echo and Formulatrix Tempest.
# MOLM-13 cells = assay: MOLM-13 Cellular Assay; type: cell-based; conditions: Homo sapiens, MOLM-13, 72 h, 72 hours exposure, cell viability by CellTiter-Glo
# Protocol: MOLM-13 cells were obtained from DSMZ and were maintained in RPMI 1640+Glutamax+25 mM HEPES (Invitrogen, catalog number 72400) supplemented with 10% heat inactivated fetal bovine serum (FBS; Invitrogen, catalog number 16140). The day prior to assay set-up, cells were pelleted, resuspended in fresh media, counted, and cells were plated at 0.4×10^6 cell/mL in a T150 flask. On the day of the assay, cells were pelleted, resuspend in fresh media, counted, and seeded at 5,000 cells/well in white opaque 96-well tissue culture treated microplates (Perkin Elmer, catalog number 6005680). Cells were exposed to different concentrations of test compounds at 37° C., 5% CO2 for 72 hours immediately after seeding. Cell viability was acquired on a Perkin Elmer Envision 2104 multilabel reader using the CellTiter-Glo assay (Promega) according to the manufacturer's instructions.
Compound,IC50 (human DHODH),IC50 (MOLM-13 cells)
"CCn1c(CO)nn(-c2cc3c(C(C)C)cc(-c4c(C(F)(F)F)n[nH]c4Cl)nc3cc2F)c1=O [Example 27, 1-(2-(5-Chloro-3-(trifluoromethyl)-1H-pyrazol-4-yl)-7-fluoro-4-isopropylquinolin-6-yl)-4-ethyl-3-(hydroxymethyl)-1H-1,2,4-triazol-5 (4H)-one]",0.7 nM,6 nM
"Cc1n[nH]c(C(F)(F)F)c1-c1cc(C(C)C)c2cc(-c3nc(C(C)O)n(C)n3)c(F)cc2n1 (stereo not shown) [Example 29, 1-(3-(7-Fluoro-4-isopropyl-2-(3-methyl-5-(trifluoromethyl)-1H-pyrazol-4-yl)quinolin-6-yl)-1-methyl-1H-1,2,4-triazol-5-yl)ethan-1-ol]",1 nM,0.36 nM
"CCn1c(CO)nn(-c2cc3c(C(C)C)cc(-c4c[nH]nc4C(F)(F)F)nc3cc2F)c1=O [Example 23, 4-Ethyl-1-(7-fluoro-4-isopropyl-2-(3-(trifluoromethyl)-pH-pyrazol-4-yl)quinolin-6-yl)-3-(hydroxymethyl)-1H-1,2,4-triazol-5 (4H)-one]",14 nM,9 nM
"CCn1c(CO)nn(-c2cc3c(C(C)C)cc(-c4c[nH]nc4C4CC4)nc3cc2F)c1=O [Example 15, 1-(2-(3-Cyclopropyl-1H-pyrazol-4-yl)-7-fluoro-4-isopropylquinolin-6-yl)-4-ethyl-3-(hydroxymethyl)-1H-1,2,4-triazol-5 (4H)-one]",13 nM,20 nM
"CCn1c(CO)nn(-c2cc3c(C(C)C)cc(-c4c(Cl)c(O)nn4C)nc3cc2F)c1=O [Example 25, 2-(2-(4-Chloro-3-hydroxy-1-methyl-1H-pyrazol-5-yl)-7-fluoro-4-isopropylquinolin-6-yl)-4-ethyl-5-(hydroxymethyl)-2,4-dihydro-3H-1,2,4-triazol-3-one]",11 nM,6 nM
"CCn1c(CO)nn(-c2cc3c(C(C)C)cc(OC4CCC4)nc3cc2F)c1=O [Example 6, 1-(2-Cyclobutoxy-7-fluoro-4-isopropylauinolin-6-yl)-4-ethyl-3-(hydroxymethyl)-1H-1,2,4-triazol-5 (4H)-one]",1080 nM,> 100 nM
"Cc1n[nH]c(C(F)(F)F)c1-c1cc(C(C)C)c2cc(-c3cn(C)c(CO)n3)c(F)cc2n1 [Example 33, (4-(7-Fluoro-4-isopropyl-2-(3-methyl-5-(trifluoromethyl)-1H-pyrazol-4-yl)quinolin-6-yl)-1-methyl-1H-imidazol-2-yl)methanol]",2 nM,1 nM
"C=C(C)c1cc(-c2ccccc2C)nc2cc(F)c(-n3nc(CO)n(CC)c3=O)cc12 [Example 39, 4-Ethyl-1-(7-fluoro-4-(prop-1-en-2-Yl)-2-(o-tolyl)quinolin-6-yl)-3-(hydroxymethyl)-1H-1,2,4-triazol-5 (4H)-one]",0.24 nM,0.2 nM
"CCn1c(CO)nn(-c2cc3c(C(C)C)cc(-c4c(C)cnc(OC)c4Cl)nc3cc2F)c1=O [Example 7, 1-(2-(3-Chloro-2-methoxy-5-methylpyridin-4-yl)-7-fluoro-4-isopropylquinolin-6-yl)-4-ethyl-3-(hydroxymethyl)-1H-1,2,4-triazol-5 (4H)-one]",1.5 nM,4 nM

# Further lines, results first:
IC50 (human DHODH),IC50 (MOLM-13 cells),Compound
4.8 nM,9.1 nM,"CCn1c(CO)nn(-c2cc3c(C(C)C)cc(-c4cc(OC)ncc4C)nc3cc2F)c1=O [Example 8, 4-Ethyl-1-(7-fluoro-4-isopropyl-2-(2-methoxy-5-methylpyridin-4-yl)quinolin-6-yl)-3-(hydroxymethyl)-1H-1,2,4-triazol-5 (4H)-one]"
0.6 nM,0.5 nM,"CCn1c(CO)nn(-c2cc3c(C(C)C)cc(-c4ccccc4C)nc3cc2F)c1=O [Example 9, 4-Ethyl-1-(7-fluoro-4-isopropyl-2-(o-tolyl)quinolin-6-yl)-3-(hydroxymethyl)-1H-1,2,4-triazol-5 (4H)-one]"
3.9 nM,> 100 nM,"CCn1c(CO)nn(-c2cc3c(C(C)C)cc(-c4ccnc(O)c4C)nc3cc2F)c1=O [Example 22, 4-Ethyl-1-(7-fluoro-2-(2-hydroxy-3-methylpyridin-4-yl)-4-isopropylquinolin-6-yl)-3-(hydroxymethyl)-1H-1,2,4-triazol-5 (4H)-one]"
9.4 nM,> 30 nM,"CCn1c(CO)nn(-c2cc3c(C(C)C)cc(-c4c[nH]nc4C)nc3cc2F)c1=O [Example 16, 4-Ethyl-2-(7-fluoro-4-isopropyl-2-(3-methyl-1H-pyrazol-4-yl)quinolin-6-yl)-5-(hydroxymethyl)-2,4-dihydro-3H-1,2,4-triazol-3-one]"
32 nM,30 nM,"CCn1c(CO)nn(-c2cc3c(C(C)C)cc(-c4c(C)ccnc4OC)nc3cc2F)c1=O [Example 11, 4-Ethyl-2-(7-fluoro-4-isopropyl-2-(2-methoxy-4-methylpyridin-3-yl)quinolin-6-yl)-5-(hydroxymethyl)-2,4-dihydro-3H-1,2,4-triazol-3-one]"
